{"source": "patent US8962681B2", "about": "“Use of aminoacetonitrile derivatives against endoparasites” (Zoetis LLC, priority 2011, dated 2015)", "data": [{"tested_on": "Dirofilaria immitis microfilariae", "experiment": "in vitro microwell motility assay against heartworm microfilariae", "assay_type": "cell-based", "details": "microfilaria from canine blood, 384 well plate, 72 hours incubation at 37° C. and 5% CO2, LemnaTec Scanalyzer", "units": {"ED50 (dose at which the overall microfilaria motility was reduced by 50% compared to that of an untreated control)": "µM"}, "values": [{"molecule": "CC(C#N)(COc1cc(Br)cc(C#N)c1)NC(=O)c1ccc(S(F)(F)(F)(F)F)cc1", "note": "(stereo not shown) [test compound 33, N-[2-(3-bromo-5-cyanophenoxy)-1-cyano-1-methylethyl]-4-(pentafluorothio)-benzamide]", "ED50 (dose at which the overall microfilaria motility was reduced by 50% compared to that of an untreated control)": 33}, {"molecule": "COc1c(F)cc(Oc2ccc(C#N)cc2OCC(C)(C#N)NC(=O)c2ccc(S(F)(F)(F)(F)F)cc2)cc1F", "note": "(stereo not shown) [test compound 78, N-{1-cyano-2-[5-cyano-2-(3,5-difluoro-4-methoxyphenoxy)phenoxy]-1-methylethyl}-4-(pentafluorothio)benzamide]", "ED50 (dose at which the overall microfilaria motility was reduced by 50% compared to that of an untreated control)": 1}, {"molecule": "COc1cc(O)ccc1Oc1ccc(C#N)cc1OCC(C)(C#N)NC(=O)c1ccc(S(F)(F)(F)(F)F)cc1", "note": "(stereo not shown) [test compound 79, N-{1-cyano-2-[5-cyano-2-(4-hydroxy-2-methoxyphenoxy)phenoxy]-1-methylethyl}-4-(pentafluorothio)benzamide]", "ED50 (dose at which the overall microfilaria motility was reduced by 50% compared to that of an untreated control)": 10}, {"molecule": "CC(C#N)(COc1ccc(-c2cccnc2)cc1C(F)(F)F)NC(=O)c1ccc(S(F)(F)(F)(F)F)cc1", "note": "(stereo not shown) [test compound 82, N-{1-cyano-1-methyl-2-[4-pyridin-3-yl-2-(trifluoromethyl)phenoxy]ethyl}-4-(pentafluorothio)benzamide]", "ED50 (dose at which the overall microfilaria motility was reduced by 50% compared to that of an untreated control)": 10}, {"molecule": "CC(C#N)(COc1cc(C#N)ccc1Cl)NC(=O)c1ccc(S(F)(F)(F)(F)F)cc1", "note": "(stereo not shown) [test compound 4, N-[2-(2-chloro-5-cyanophenoxy)-1-cyano-1-methylethyl]-4-(pentafluorothio)benzamide]", "ED50 (dose at which the overall microfilaria motility was reduced by 50% compared to that of an untreated control)": 10}, {"molecule": "CC(C#N)(COc1cc(C#N)cc(C(F)(F)F)c1)NC(=O)c1ccc(S(F)(F)(F)(F)F)cc1", "note": "(stereo not shown) [test compound 5, N-{1-cyano-2-[3-cyano-5-(trifluoromethyl)phenoxy]-1-methylethyl}-4-(pentafluorothio)benzamide]", "ED50 (dose at which the overall microfilaria motility was reduced by 50% compared to that of an untreated control)": 3.3}, {"molecule": "CC(C#N)(COc1cc(C#N)ccc1Oc1ccc(F)cc1)NC(=O)c1ccc(S(F)(F)(F)(F)F)cc1", "note": "(stereo not shown) [test compound 61, N-{1-cyano-2-[5-cyano-2-(4-fluorophenoxy)phenoxy]-1-methylethyl}-4-(pentafluorothio)benzamide]", "ED50 (dose at which the overall microfilaria motility was reduced by 50% compared to that of an untreated control)": 1}, {"molecule": "CC(C#N)(COCc1ccc(C(F)(F)F)cc1)NC(=O)c1ccc(S(F)(F)(F)(F)F)cc1", "note": "(stereo not shown) [test compound 84, N-(1-cyano-1-methyl-2-{[4-(trifluoromethyl)benzyl]oxy}ethyl)-4-(pentafluorothio)benzamide]", "ED50 (dose at which the overall microfilaria motility was reduced by 50% compared to that of an untreated control)": 3.3}, {"molecule": "CC(C#N)(COc1cc(C#N)ccc1Cl)NC(=O)c1ccc(S(F)(F)(F)(F)F)cc1", "note": "(stereo not shown) [test compound 57, N-[2-(2-chloro-5-cyanophenoxy)-1-cyano-1-methylethyl]-4-(pentafluorothio)-benzamide]", "ED50 (dose at which the overall microfilaria motility was reduced by 50% compared to that of an untreated control)": 10}, {"molecule": "CC(C#N)(COc1cc(Br)ccc1C#N)NC(=O)c1ccc(S(F)(F)(F)(F)F)cc1", "note": "(stereo not shown) [test compound 36, N-[2-(5-bromo-2-cyanophenoxy)-1-cyano-1-methylethyl]-4-(pentafluorothio)-benzamide]", "ED50 (dose at which the overall microfilaria motility was reduced by 50% compared to that of an untreated control)": 10}, {"molecule": "COc1ccc(Oc2ccc(C#N)cc2OCC(C)(C#N)NC(=O)c2ccc(S(F)(F)(F)(F)F)cc2)c(Cl)c1", "note": "(stereo not shown) [test compound 75, N-{2-[2-(2-chloro-4-methoxyphenoxy)-5-cyanophenoxy]-1-cyano-1-methylethyl}-4-(pentafluorothio)benzamide]", "ED50 (dose at which the overall microfilaria motility was reduced by 50% compared to that of an untreated control)": 3.3}, {"molecule": "CC(C#N)(COc1ccc(F)cc1Br)NC(=O)c1ccc(S(F)(F)(F)(F)F)cc1", "note": "(stereo not shown) [test compound 31, N-[2-(2-bromo-4-fluorophenoxy)-1-cyano-1-methylethyl]-4-(pentafluorothio)-benzamide]", "ED50 (dose at which the overall microfilaria motility was reduced by 50% compared to that of an untreated control)": 10}, {"molecule": "CC(C#N)(COc1cc(C#N)ccc1Oc1ccc(Cl)cc1F)NC(=O)c1ccc(S(F)(F)(F)(F)F)cc1", "note": "(stereo not shown) [test compound 62, N-{2-[2-(4-chloro-2-fluorophenoxy)-5-cyanophenoxy]-1-cyano-1-methylethyl}-4-(pentafluorothio)benzamide]", "ED50 (dose at which the overall microfilaria motility was reduced by 50% compared to that of an untreated control)": 1}, {"molecule": "CC(C#N)(COc1cc(F)c(F)cc1Br)NC(=O)c1ccc(S(F)(F)(F)(F)F)cc1", "note": "(stereo not shown) [test compound 58, N-[2-(2-bromo-4,5-difluorophenoxy)-1-cyano-1-methylethyl]-4-(pentafluorothio)benzamide]", "ED50 (dose at which the overall microfilaria motility was reduced by 50% compared to that of an untreated control)": 33}, {"molecule": "CC(C#N)(COc1ccc(Br)cc1F)NC(=O)c1ccc(S(F)(F)(F)(F)F)cc1", "note": "(stereo not shown) [test compound 32, N-[2-(4-bromo-2-fluorophenoxy)-1-cyano-1-methylethyl]-4-(pentafluorothio)-benzamide]", "ED50 (dose at which the overall microfilaria motility was reduced by 50% compared to that of an untreated control)": 33}, {"molecule": "CC(C#N)(COc1cccc(Cl)c1C#N)NC(=O)c1ccc(S(F)(F)(F)(F)F)cc1", "note": "(stereo not shown) [test compound 17, N-[2-(3-chloro-2-cyanophenoxy)-1-cyano-1-methylethyl]-4-(pentafluorothio)-benzamide]", "ED50 (dose at which the overall microfilaria motility was reduced by 50% compared to that of an untreated control)": 10}, {"molecule": "CC(C#N)(COc1cc(C#N)ccc1Oc1ccc(Cl)cc1)NC(=O)c1ccc(S(F)(F)(F)(F)F)cc1", "note": "(stereo not shown) [test compound 64, N-{2-[2-(4-chlorophenoxy)-5-cyanophenoxy]-1-cyano-1-methylethyl}-4-(pentafluorothio)benzamide]", "ED50 (dose at which the overall microfilaria motility was reduced by 50% compared to that of an untreated control)": 1}, {"molecule": "CC(C#N)(COc1ccc(C#N)cc1OC(F)(F)F)NC(=O)c1ccc(S(F)(F)(F)(F)F)cc1", "note": "(stereo not shown) [test compound 56, N-{1-cyano-2-[4-cyano-2-(trifluoromethoxy)phenoxy]-1-methylethyl}-4-(pentafluorothio)benzamide]", "ED50 (dose at which the overall microfilaria motility was reduced by 50% compared to that of an untreated control)": 3.3}, {"molecule": "CC(C#N)(COc1c(F)cc(F)cc1C#N)NC(=O)c1ccc(S(F)(F)(F)(F)F)cc1", "note": "(stereo not shown) [test compound 54, N-[1-cyano-2-(2-cyano-4,6-difluorophenoxy)-1-methylethyl]-4-(pentafluorothio)-benzamide]", "ED50 (dose at which the overall microfilaria motility was reduced by 50% compared to that of an untreated control)": 33}, {"molecule": "CC(C#N)(COc1cccc(Cl)c1C(F)(F)F)NC(=O)c1ccc(S(F)(F)(F)(F)F)cc1", "note": "(stereo not shown) [test compound 50, N-{2-[3-chloro-2-(trifluoromethyl)phenoxy]-1-cyano-1-methylethyl}-4-(pentafluorothio)benzamide]", "ED50 (dose at which the overall microfilaria motility was reduced by 50% compared to that of an untreated control)": 33}, {"molecule": "COc1ccc(OCC(C)(C#N)NC(=O)c2ccc(S(F)(F)(F)(F)F)cc2)cc1C#N", "note": "(stereo not shown) [test compound 41, N-[1-cyano-2-(3-cyano-4-methoxyphenoxy)-1-methylethyl]-4-(pentafluorothio)-benzamide]", "ED50 (dose at which the overall microfilaria motility was reduced by 50% compared to that of an untreated control)": 33}, {"molecule": "CC(C#N)(COc1ccc(Cl)c(Cl)c1)NC(=O)c1ccc(S(F)(F)(F)(F)F)cc1", "note": "(stereo not shown) [test compound 38, N-[1-cyano-2-(3,4-dichlorophenoxy)-1-methylethyl]-4-(pentafluorothio)benzamide]", "ED50 (dose at which the overall microfilaria motility was reduced by 50% compared to that of an untreated control)": 33}]}]}
